Measured values: patent US4143041A, “4'-Deoxyvincristine and related compounds” (Eli Lilly and Company, priority 1977, dated 1979)
Where a name gives a salt, the structure may show the parent alone.

Key:
[1] = system: experimental malignancies; settings: cited from earlier work
[2] = system: 755 (CA755 adenocarcinoma); assay: transplanted CA755 adenocarcinoma in mice; format: in vivo; settings: IP
Protocol: (§1) The compounds of this invention, as represented by Formula II above, particularly those in which R^1 is acetoxy, are powerful anti-tumor agents.
(§2) The following table -- Table 1 -- gives the results of several experiments in which transplanted tumors in mice were treated successfully with a compound of this invention.
(§3) In the table, column 1 gives the name of the compound; column 2, the transplanted tumor; column 3, the dose level or dose level range and the number of days the dosage was administered; column 4, the route of administration, and column 5, the percent inhibition of tumor growth or percent prolongation of survival time, e.g., B16. (ROS is an abbreviation of Ridgeway osteogenic sarcoma; GLS for Gardner lymphosarcoma; P1534(J) and L1210 are leukemias; CA755 is an adenocarcinoma; and B16 is a melanoma.).

[3] = system: GLS (Gardner lymphosarcoma); assay: transplanted Gardner lymphosarcoma (GLS) in mice; format: in vivo
Protocol: as §1, §2, §3

[4] = system: B16 melanoma; assay: transplanted B16 melanoma in mice (survival); format: in vivo; settings: IP
Protocol: as §1, §2, §3
**Delayed treatment-dosed 5th, 9th and 13th days

[5] = system: P1534(J) leukemia; assay: transplanted P1534(J) leukemia in mice; format: in vivo; settings: IP
Protocol: as §1, §2, §3

[6] = pKa' in 66% DMF; format: physicochemical
[7] = system: transplanted tumors; assay: anti-tumor / oncolytic activity against transplanted tumors in mice; format: in vivo
Excerpt: as §1

[8] = system: experimental tumors; settings: cited from earlier work
[9] = system: ROS (Ridgeway osteogenic sarcoma); assay: transplanted Ridgeway osteogenic sarcoma (ROS) in mice; format: in vivo; settings: IP
Protocol: as §1, §2, §3

[10] = system: L1210 leukemia; assay: transplanted L1210 leukemia in mice; format: in vivo; settings: IP
Protocol: as §1, §2, §3

[11] = cited from earlier work

CCC1(O)CN2CCc3c([nH]c4ccccc34)C(C(=O)OC)(c3cc4c(cc3OC)N(C)C3C(O)(C(=O)OC)C(OC(C)=O)C5(CC)C=CCN6CCC43C65)CC(C2)C1O (stereo not drawn) [vincadioline]
activity in the treatment of experimental malignancies in animals [1]: active

CC[C@@H]1C[C@@H]2CN(CCc3c([nH]c4ccccc34)[C@@](C(=O)OC)(c3cc4c(cc3OC)N(C=O)[C@H]3[C@@](O)(C(=O)OC)[C@H](OC(C)=O)[C@]5(CC)C=CCN6CC[C@]43[C@@H]65)C2)C1 [4'-Deoxyvincristine sulfate, 4'-deoxyvincristine sulfate]
Percent Inhibition or Prolongation of Survival Time (Toxic) ([2]; 0.9 mg./kg. × 3 days): Toxic | Percent Inhibition or Prolongation of Survival Time ([2]; 0.06-0.13 mg./kg. × 9-10 days): 15-100% | Percent Inhibition or Prolongation of Survival Time ([2]; 0.1-0.3 mg./kg. × 3 days): 36-100% | Percent Inhibition or Prolongation of Survival Time (Toxic) ([2]; 0.25-1.8 mg./kg. × 9-10 days): Toxic | Percent Inhibition or Prolongation of Survival Time ([3]; 0.18-0.25 mg./kg. × 3 days, IP): 62-94% | Percent Inhibition or Prolongation of Survival Time (Toxic) ([3]; 0.4-0.6 mg./kg. × 3 days, IP): Toxic | Percent Inhibition or Prolongation of Survival Time ([4]; 0.30-0.9 mg./kg. × 3 days, *1 or more indefinite survivors): 36-143%

CCC1(O)CN2CCc3c([nH]c4ccccc34)C(C(=O)OC)(c3cc4c(cc3OC)N(C)C3C(O)(C(=O)OC)C(OC(C)=O)C5(CC)C=CCN6CCC43C65)CC(O)(C2)C1 (stereo not drawn) [leurocolombine]
activity in the treatment of experimental malignancies in animals [1]: active

CCC12CN3CCc4c([nH]c5ccccc45)[C@@](C(=O)OC)(c4cc5c(cc4OC)N(C=O)[C@H]4[C@@](O)(C(=O)OC)[C@H](OC(C)=O)[C@]6(CC)C=CCN7CC[C@]54[C@@H]76)C[C@@H](C3)C1O2 (stereo partly drawn) [leuroformine, N-formylleurosine]
activity in the treatment of experimental malignancies in animals [1]: active

CC[C@@]1(O)C[C@@H]2CN(CCc3c([nH]c4ccccc34)[C@@](C(=O)OC)(c3cc4c(cc3OC)N(C)[C@H]3[C@@](O)(C(=O)OC)[C@H](OC(C)=O)[C@]5(CC)C=CCN6CC[C@]43[C@@H]65)C2)C1 [leurosidine]
activity in the treatment of experimental malignancies in animals [1]: active

CC[C@H]1C[C@@H]2CN(CCc3c([nH]c4ccccc34)[C@@](C(=O)OC)(c3cc4c(cc3OC)N(C=O)[C@H]3[C@@](O)(C(=O)OC)[C@H](OC(C)=O)[C@]5(CC)C=CCN6CC[C@]43[C@@H]65)C2)C1 [4'-deoxy-1-formylleurosidine]
Percent Inhibition or Prolongation of Survival Time (Toxic) ([5]; 0.18 mg./kg. × 10 days): Toxic | Percent Inhibition or Prolongation of Survival Time ([5]; 0.08-0.18 mg./kg. × 10 days): 9-46% | Percent Inhibition or Prolongation of Survival Time ([2]; 0.25 mg./kg. × 3 days): 47% | Percent Inhibition or Prolongation of Survival Time ([2]; 0.4 mg./kg. × 3 days): 73% | Percent Inhibition or Prolongation of Survival Time ([2]; 0.6 mg./kg. × 3 days): 54% | Percent Inhibition or Prolongation of Survival Time ([2]; 0.03-0.09 mg./kg. × 9 days): 8-72% | Percent Inhibition or Prolongation of Survival Time ([2]; 0.06-0.135 mg./kg. × 10 days): 33-93% | Percent Inhibition or Prolongation of Survival Time (Toxic) ([2]; 0.2-0.3 mg./kg. × 10 days): Toxic | Percent Inhibition or Prolongation of Survival Time ([3]; 0.25-0.6 mg./kg. × 3 days, IP): 73-100% | pKa [6]: 9 | Percent Inhibition or Prolongation of Survival Time (Toxic) ([4]; 0.9 mg./kg. × 3 days): Toxic | Percent Inhibition or Prolongation of Survival Time ([4]; 0.25-0.6 mg./kg. × 3 days): 98-146%

CC[C@H]1C[C@@H]2CN(CCc3c([nH]c4ccccc34)[C@@](C(=O)OC)(c3cc4c(cc3OC)N(C)[C@H]3[C@@](O)(C(=O)OC)[C@H](O)[C@]5(CC)C=CCN6CC[C@]43[C@@H]65)C2)C1 [4'-deoxy-4-desacetylleurosidine]
anti-tumor / oncolytic activity [7]: oncolytic agent

CCC1(O)CN2CCc3c([nH]c4ccccc34)C(C(=O)OC)(c3cc4c(cc3OC)N(C)C3C(O)(C(=O)OC)CC5(CC)C=CCN6CCC43C65)CC(C2)C1O (stereo not drawn) [4-desacetoxy-3'-hydroxyvinblastine]
activity in the treatment of experimental malignancies in animals [1]: active

CC[C@H]1C[C@@H]2CN(CCc3c([nH]c4ccccc34)[C@@](C(=O)OC)(c3cc4c(cc3OC)N(C)[C@H]3[C@@](O)(C(=O)OC)[C@H](O)[C@]5(CC)C=CCN6CC[C@]43[C@@H]65)C2)C1 [4'-deoxy-4-desacetyl-leurosidine sulfate, 4'-deoxy-4-desacetylleurosidine sulfate]
Percent Inhibition or Prolongation of Survival Time ([2]; 0.25 mg./kg. × 3 days): 32% | Percent Inhibition or Prolongation of Survival Time ([2]; 0.4 mg./kg. × 3 days): 37% | Percent Inhibition or Prolongation of Survival Time (Toxic) ([2]; 0.6 mg./kg. × 3 days): Toxic | Percent Inhibition or Prolongation of Survival Time (Toxic) ([3]; 0.4 mg./kg. × 3 days, IP): Toxic | Percent Inhibition or Prolongation of Survival Time ([3]; 0.6 mg./kg. × 3 days, IP): 63% | Percent Inhibition or Prolongation of Survival Time (Toxic) ([3]; 0.9 mg./kg. × 3 days, IP): Toxic | Percent Inhibition or Prolongation of Survival Time ([4]; 0.15 mg./kg. × 3 days, **delayed treatment, dosed 5th, 9th and 13th days): 77% | Percent Inhibition or Prolongation of Survival Time ([4]; 0.3 mg./kg. × 3 days, **delayed treatment, dosed 5th, 9th and 13th days): 103% | Percent Inhibition or Prolongation of Survival Time (Toxic) ([4]; 0.6 mg./kg. × 3 days, **delayed treatment, dosed 5th, 9th and 13th days): Toxic

CC[C@H]1C[C@@H]2CN(CCc3c([nH]c4ccccc34)[C@@](C(=O)OC)(c3cc4c(cc3OC)N(C)[C@H]3[C@@](O)(C(=O)OC)[C@H](OC(C)=O)[C@]5(CC)C=CCN6CC[C@]43[C@@H]65)C2)C1 [deoxy VLB "B"]
activity in the treatment of experimental malignancies in animals [1]: active | oncolytic activity in experimental tumors in mice [8]: lack reproducible activity

CC[C@]1(O)C[C@@H]2CN(CCc3c([nH]c4ccccc34)[C@@](C(=O)OC)(c3cc4c(cc3OC)N(C=O)[C@H]3[C@@](O)(C(=O)OC)[C@H](OC(C)=O)[C@]5(CC)C=CCN6CC[C@]43[C@@H]65)C2)C1 [leurocristine]
activity in the treatment of experimental malignancies in animals [1]: active

CC[C@H]1C[C@@H]2CN(CCc3c([nH]c4ccccc34)[C@@](C(=O)OC)(c3cc4c(cc3OC)N(C=O)[C@H]3[C@@](O)(C(=O)OC)[C@H](OC(C)=O)[C@]5(CC)C=CCN6CC[C@]43[C@@H]65)C2)C1 [4'-Deoxy-1-formylleurosidine sulfate]
Percent Inhibition or Prolongation of Survival Time ([9]; 0.18 mg./kg. × 3 days): 93% | Percent Inhibition or Prolongation of Survival Time (Toxic) ([9]; 0.25 mg./kg. × 3 days): Toxic | Percent Inhibition or Prolongation of Survival Time ([9]; 0.4 mg./kg. × 3 days): 100% | Percent Inhibition or Prolongation of Survival Time ([3]; 0.18 mg./kg. × 3 days, IP): 100% | Percent Inhibition or Prolongation of Survival Time (Toxic) ([3]; 0.25 mg./kg. × 3 days, IP): Toxic | Percent Inhibition or Prolongation of Survival Time ([3]; 0.4 mg./kg. × 3 days, IP): 100% | Percent Inhibition or Prolongation of Survival Time (Toxic) ([3]; 0.6 mg./kg. × 3 days, IP): Toxic | Percent Inhibition or Prolongation of Survival Time ([10]; 0.25 mg./kg. × 3 days, *1 or more indefinite survivors): 65% | Percent Inhibition or Prolongation of Survival Time (Toxic) ([10]; 0.4-0.6 mg./kg. × 3 days): Toxic

CC[C@@H]1C[C@@H]2CN(CCc3c([nH]c4ccccc34)[C@@](C(=O)OC)(c3cc4c(cc3OC)N(C)[C@H]3[C@@](O)(C(=O)OC)[C@H](OC(C)=O)[C@]5(CC)C=CCN6CC[C@]43[C@@H]65)C2)C1 [deoxy VLB "A"]
activity in the treatment of experimental malignancies in animals [1]: active | oncolytic activity in experimental tumors in mice [8]: lack reproducible activity

CC[C@]1(O)C[C@@H]2CN(CCc3c([nH]c4ccccc34)[C@@](C(=O)OC)(c3cc4c(cc3OC)N(C)[C@@H]3[C@]45CCN4CC=C[C@@](CC)(C[C@]3(O)C(=O)OC)[C@H]45)C2)C1 [4-desacetoxy vinblastine]
activity in the treatment of experimental malignancies in animals [1]: active

CC[C@H]1C[C@@H]2CN(CCc3c([nH]c4ccccc34)[C@@](C(=O)OC)(c3cc4c(cc3OC)N(C=O)[C@H]3[C@@](O)(C(=O)OC)[C@H](O)[C@]5(CC)C=CCN6CC[C@]43[C@@H]65)C2)C1 [4'-Deoxy-4-desacetyl 1-desmethyl-1-formyl-leurosidine sulfate]
Percent Inhibition or Prolongation of Survival Time ([3]; 0.18 mg./kg. × 3 days, route not given): 95% | Percent Inhibition or Prolongation of Survival Time (Toxic) ([3]; 0.6 mg./kg. × 3 days, route not given): Toxic | Percent Inhibition or Prolongation of Survival Time ([3]; 0.25-0.40 mg./kg. × 3 days, route not given): 94-100% | Percent Inhibition or Prolongation of Survival Time ([4]; 0.15-0.6 mg./kg. × 3 days, **delayed treatment, dosed 5th, 9th and 13th days): 31 -62%

CC[C@]1(O)C[C@@H]2CN(CCc3c([nH]c4ccccc34)[C@@](C(=O)OC)(c3cc4c(cc3OC)N(C)[C@H]3[C@@](O)(C(=O)OC)[C@H](OC(C)=O)[C@]5(CC)C=CCN6CC[C@]43[C@@H]65)C2)C1 [vincaleukoblastine]
activity in the treatment of experimental malignancies in animals [1]: active

CCC12CN3CCc4c([nH]c5ccccc45)[C@@](C(=O)OC)(c4cc5c(cc4OC)N(C)[C@H]4[C@@](O)(C(=O)OC)[C@H](OC(C)=O)[C@]6(CC)C=CCN7CC[C@]54[C@@H]76)C[C@@H](C3)C1O2 (stereo partly drawn) [leurosine]
activity in the treatment of experimental malignancies in animals [1]: active | clinical response [11]: limited | oncolytic activity in experimental tumors in mice [8]: demonstrated oncolytic activity
